Assay results as given in the supplement of paper PMC10307832.

Key:
Assay in all cases: relative viability (nuclei count vs DMSO), 5 days (fraction); higher = more cells survive
Masitinib + Luminespib = compound: Cc1ccc(NC(=O)c2ccc(CN3CCN(C)CC3)cc2)cc1Nc1nc(-c2cccnc2)cs1 [Masitinib] + CCNC(=O)c1noc(-c2cc(C(C)C)c(O)cc2O)c1-c1ccc(CN2CCOCC2)cc1 [Luminespib] (partner 0.01 µM)
How it was run: (§1)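 Each reported value is a median over duplicate plates. It expresses relative viability: treated-well nuclei count divided by vehicle-well nuclei count. Lung cancer cell lines in 1536-well plates were dosed by pin tool a day after seeding, alone with one drug or with a fixed anchor-drug dose plus five library-drug doses (not always all listed) in √10 steps, and nuclei were counted after 5 days.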

Masitinib + Dasatinib = compound: Cc1ccc(NC(=O)c2ccc(CN3CCN(C)CC3)cc2)cc1Nc1nc(-c2cccnc2)cs1 [Masitinib] + Cc1nc(Nc2ncc(C(=O)Nc3c(C)cccc3Cl)s2)cc(N2CCN(CCO)CC2)n1 [Dasatinib] (partner 0.075 µM)
How it was run: as §1

[1] = compound: CC1=CC(=CC=C1)NC2=NC(=CS2)C3=CC=NC=C3 + CC(C)C[C@H](NC(=O)[C@H](Cc1ccccc1)NC(=O)c1cnccn1)B(O)O [Bortezomib] (partner 0.002 µM)
How it was run: as §1

[2] = compound: CC1=CC(=CC=C1)NC2=NC(=CS2)C3=CC=NC=C3 + Nc1ncn([C@H]2C[C@H](O)[C@@H](CO)O2)c(=O)n1 [Decitabine] (partner 2 µM)
How it was run: as §1

Cell Line	relative viability (Masitinib + Luminespib; first compound 0.01 µM)	relative viability (Masitinib + Luminespib; first compound 0.03162 µM)	relative viability (Masitinib + Luminespib; first compound 0.1 µM)	relative viability (Masitinib + Luminespib; first compound 0.3162 µM)	relative viability (Masitinib + Luminespib; first compound 1 µM)	relative viability (Masitinib + Dasatinib; first compound 0.01 µM)	relative viability (Masitinib + Dasatinib; first compound 0.03162 µM)	relative viability (Masitinib + Dasatinib; first compound 0.1 µM)	relative viability (Masitinib + Dasatinib; first compound 0.3162 µM)	relative viability (Masitinib + Dasatinib; first compound 1 µM)	relative viability ([1]; first compound 0.08 µM)	relative viability ([1]; first compound 0.253 µM)	relative viability ([1]; first compound 0.8 µM)	relative viability ([1]; first compound 2.53 µM)	relative viability ([1]; first compound 8 µM)	relative viability ([2]; first compound 0.08 µM)	relative viability ([2]; first compound 0.253 µM)	relative viability ([2]; first compound 0.8 µM)	relative viability ([2]; first compound 2.53 µM)	relative viability ([2]; first compound 8 µM)
NCI-H2087	0.158	0.166	0.153	0.202	0.181	0.922	0.927	1.01	0.775	0.788	0.708	0.825	0.844	0.666	0.3	0.264	0.293	0.281	0.263	0.238
NCI-H2126	0.888	1	0.951	0.89	0.794	0.681	0.537	0.653	0.369	0.525	1.06	1.04	1.16	0.989	0.91	0.525	0.56	0.559	0.572	0.578
NCI-H2347	0.758	0.299	0.41	0.556	0.326	0.325	0.293	0.274	0.279	0.262	0.748	0.74	0.847	0.804	0.57	0.622	0.596	0.53	0.602	0.591
NCI-H2405	0.606	0.64	0.692	0.521	0.571	0.2	0.214	0.213	0.238	0.193	0.929	0.87	0.87	0.774	0.903	0.694	0.678	0.686	–	0.671
NCI-H3122	0.109	0.0826	0.0942	0.109	0.0792	0.512	0.724	0.61	0.615	0.916	1.03	1.07	1.06	0.996	1.03	0.366	0.443	0.449	0.467	0.522
PC-3 [JPC-3]	0.741	0.571	0.774	0.783	0.677	0.984	0.839	0.973	0.927	0.954	0.743	0.821	0.577	0.636	0.361	0.783	–	0.865	0.72	0.756
PC-14	0.15	0.222	0.246	0.151	0.196	0.266	0.241	0.28	0.181	0.217	0.966	0.899	0.685	0.909	0.499	0.174	0.186	0.187	0.177	0.217
RERF-LC-KJ	1.41	1.15	1.42	1.23	1.27	0.881	0.806	0.975	0.667	0.702	0.963	1.07	0.786	0.813	0.7	0.675	0.64	0.62	0.522	0.387
SK-LU-1	0.208	0.195	0.2	0.221	0.193	0.157	0.202	0.174	0.195	0.18	0.905	1.07	0.884	1.3	1.19	0.624	0.625	0.563	0.617	0.726
SW 1573	0.172	0.231	0.214	0.261	0.302	0.452	0.463	0.526	0.52	0.476	1.06	0.954	1.03	1.09	0.807	0.48	0.409	0.441	0.454	0.485
